From patent US12065435B2, “Compounds for the treatment of glycogen storage disorders” (HADASIT MEDICAL RESEARCH SERVICES AND DEVELOPMENT LTD., priority 2017, dated 2024)

How the values were obtained:
[1] = tested on: polyglucosan body (PB) in APBD patient-derived fibroblasts; assay: High content (image-based) PAS screening assay for polyglucosan bodies; assay type: cell-based, human; settings: 0, 1, 5, 10 and 50 μM
Method: All the steps of the assay were performed automatically using a Freedom Evo 150 liquid handling robot (Tecan). APBD patient-derived fibroblasts were seeded at a density of 800 cells/well in DMEM (Gibco) supplemented with 1 mM sodium pyruvate (Gibco), 1% antibiotics (Biological Industries, Israel) and 5% fetal bovine serum (Hyclone) into 384 well microclear plates (Greiner). The plates were transferred by the robotic arm (RoMa) into an automated incubator (Liconic), integrated with the robotic system, where they were incubated at 37° C. with 5% CO2. Following 24 h incubation, the medium was replaced by the robot using medium supplemented with 10 μM of each screened compound (0.1% DMSO final concentration, all prepared by the robot). The screened compounds were part of the Diverset CL collection purchased from ChemBridge (10,084 out of 50,000 molecules).
Next, these cells were cultured for another 24 h in the automated incubator, and, using the robot, washed them with PBS (Biological Industries, Israel), the cells were fixed with 4% paraformaldehyde (PFA), washed again with PBS, neutralized the previously added PFA by ammonium chloride (Sigma Aldrich), washed with PBS, permeabilized with 0.1% Triton X-100 (Sigma Aldrich), and washed again with PBS.
Following this, a robot was used to treat the fixed cells with 0.5 g/dl diastase (or amylase, Sigma Aldrich) for 5 minutes at 37° C. in the automated incubator, wash with PBS, stained with PAS (Merck), Hoechst 33342 (Sigma Aldrich) and Cell Mask Deep Red (Molecular Probes) and wash with PBS. Images of stained cells were then acquired by the IN Cell Analyzer 2000 (GE Healthcare) and analyzed using the IN Cell Investigator (GE Healthcare) applying an algorithm that quantified the PAS signal within each Cell Mask stained cell.
Images were segmented based on the Cell Mask signal which was linked with the segmentation of the nuclei, employing an empirically established sensitivity and kernel size for allowing the best segmentation. Once these nucleus-cytoplasm complex objects were selected, the software calculated the number of these objects (cell number) as well as the intensity of the PAS signal within each of them. All the assay parameters (including the acquisition exposure times, objective, and the analysis parameters) were kept constant throughout the whole screening campaign for allowing comparison of signals obtained from different batches of assay within the campaign.
The assay was performed as mentioned above, but with compound concentrations of 1, 5, 10, and 50 μM, instead of a constant concentration of 10 μM.
The discarded data was presumably associated with cells affected by toxic compounds. In the remaining data, the measured population mean PB intensity was normalized. Based on a series of images used for training, compounds were considered as positive only where following treatment the normalized PB mean intensity was at least under −1.2 z-score of the scale. Following this approach, 85 potential hits out of the 10,084 screened compounds were selected (0.84%).

recombinant human GS1 = molecular target: T1, recombinant human GS1 (Homo sapiens, UniProt P13807); assay: In vitro GS activity assay; assay type: biochemical; settings: 50 μM; unpaired t-tests, p<0.05
T1 sequence (P13807 1-737): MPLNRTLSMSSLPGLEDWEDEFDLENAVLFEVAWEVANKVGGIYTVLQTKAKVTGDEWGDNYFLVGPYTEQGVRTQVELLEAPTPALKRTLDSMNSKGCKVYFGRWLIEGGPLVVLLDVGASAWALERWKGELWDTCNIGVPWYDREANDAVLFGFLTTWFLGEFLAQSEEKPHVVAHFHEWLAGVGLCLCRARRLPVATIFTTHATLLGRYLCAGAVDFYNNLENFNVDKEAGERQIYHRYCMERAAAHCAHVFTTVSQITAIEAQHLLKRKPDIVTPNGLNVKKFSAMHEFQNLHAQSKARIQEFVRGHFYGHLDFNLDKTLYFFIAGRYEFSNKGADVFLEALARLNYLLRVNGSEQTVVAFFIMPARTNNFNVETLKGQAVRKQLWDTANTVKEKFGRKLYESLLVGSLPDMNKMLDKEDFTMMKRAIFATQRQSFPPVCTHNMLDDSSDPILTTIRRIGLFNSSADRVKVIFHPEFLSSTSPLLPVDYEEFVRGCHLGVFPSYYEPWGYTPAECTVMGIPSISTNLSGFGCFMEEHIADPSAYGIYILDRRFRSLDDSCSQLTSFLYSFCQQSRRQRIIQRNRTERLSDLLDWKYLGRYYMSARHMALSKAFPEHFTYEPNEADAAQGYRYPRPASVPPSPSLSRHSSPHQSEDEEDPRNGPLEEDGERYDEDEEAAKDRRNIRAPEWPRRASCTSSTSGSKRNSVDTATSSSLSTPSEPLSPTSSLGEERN
Method: The reaction was carried out in 96-well plates containing 50 μl of reaction volume (50 mM Tris, pH8, 20 mM EDTA, 25 mM KF, 2 mg/ml glycogen, 10 mM Glucose-6-Phosphate, 1.65 mM UDP[14C]glucose and 100 mM UDP-glucose). To test the inhibitory effect of the hits, each one was included in the reaction at a final concentration of 50 μM. The reaction was initiated with the addition of 20 nM recombinant human GS1, followed by incubation at 37° C. for 30 min. The reaction was then stopped with the addition of 100 μl cold 100% ethanol, and the total suspension was transferred into a 96-well filter plate. Vacuum was applied to remove the ethanol. Five washing steps with 150 μl of cold 66% ethanol then fully removed any non-incorporated UDP[14C]glucose, while the labelled glycogen stayed on the well filters. The plate was dried at 37° C. incubator for 30 min. 50 μl of scintillation fluid was added to each well and the plate was read for 14C signal on Microplate scintillation and luminescence counter Top Count (Perkin Elmer).

[2] = tested on: APBD modeling mice (Gbe^Y329S/Y329S mouse model); assay: Motor parameters in APBD modeling mice; assay type: in vivo
Method: This study was conducted in compounds A and B according to the schemes described in Tables 8 and 9, respectively.
As vehicle control, 0.1% DMSO was used. It is noteworthy that, in order to have a statistically significant number of animals, compound A was tested in male mice and compound B in female mice (no mixed cages were allowed).
APBD is an autosomal disease with no gender related symptoms and it was presumed that this experimental design is optimal. The mode of delivery of the compounds was intravenous (IV) injection for the first month, followed by subcutaneous injection due to lack of injection space and scaring in animal tails.
Tables 8 and 9 describe the study design for compounds A and B. both compounds were tested at the age of 4 months, two months prior to disease onset, in order to assess possible prophylactic effects, and at the age of 6 months, at disease onset, in order to assess corrective effects.
The effect of compounds A and B on various motor parameters was tested every two weeks. The results are shown in herein.
The point of reference is one time point prior to treatment initiation. Please note, since animals first treated with the compounds at 6 months of age were not injected at all before that age, they could not have been compared to animals pre-injected with vehicle. Therefore, the duration of the longitudinal studies for the cohorts first treated at the age of 6 months is shorter than that of the animals first treated at 4 months of age.

[3] = treated from 4 months of age (2 months before onset), two way ANOVA with repeated measures
[4] = treated from 4 months of age, Bonferroni's multiple comparisons test
[5] = treated from 6 months of age (at onset), two way ANOVA with repeated measures
[6] = treated from 6 months of age, Bonferroni's multiple comparisons test

COCc1c(C(=O)N2[C@@H]3CC[C@H]2CN(C)C(=O)C3)noc1C (relative stereo) [UDP #19, (1S*,6R*)-9-{[4-(methoxymethyl)-5-methylisoxazol-3-yl]carbonyl}-3-methyl-3,9-diazabicyclo[4.2.1]nonan-4-one]
dose response of diastase resistant cell associated mean PAS intensity normalized by z-score [1]: concentration dependent | effect on GS activity (direction of change) (recombinant human GS1): increasing | apathy, mobility and responsiveness to experimenter ([2]; 250 mg/kg, IV first month then subcutaneous): less apathic, more mobile and more responsive to intervention by the experimenter | ameliorating effect on motor parameters (summary) ([2]; 250 mg/kg, IV first month then subcutaneous, tested every two weeks): ameliorate grip strength | average duration in movement in an open field test vs vehicle [2, 3]: not different from vehicle (p<0.1) | average front paw grip strength vs vehicle [2, 3]: different from vehicle with p<0.055 | average gait length vs vehicle [2, 3]: not different from vehicle (p<0.1) | average gait width vs vehicle [2, 3]: not different from vehicle (p<0.1) | average latency to fall off a metal wire vs vehicle [2, 3]: not different from vehicle (p<0.1) | average latency to fall off a rotating cylinder (rotarod) vs vehicle [2, 3]: the latency to fall was shorter in treated animals (p<0.089) | average regularity of step distance (Coefficient of Variance of all R-R and L-L step distances) vs vehicle [2, 3]: not different from vehicle (p<0.1) | average uniformity of step alternation (|0.5-(R-L/R-R)|) vs vehicle [2, 3]: not different from vehicle (p<0.1) | extension reflex vs vehicle [2, 3]: not different from vehicle (p<0.1) | average duration in movement in an open field test vs vehicle [2, 4]: no significant difference | average front paw grip strength vs vehicle [2, 4]: no significant difference | average gait length vs vehicle [2, 4]: no significant difference | average gait width vs vehicle [2, 4]: no significant difference | average latency to fall off a metal wire vs vehicle [2, 4]: no significant difference | average latency to fall off a rotating cylinder (rotarod) vs vehicle [2, 4]: 57 days after treatment initiation latency to fall was lower in treated mice as compared to vehicle control (p<0.05) | average regularity of step distance vs vehicle [2, 4]: no significant difference | average uniformity of step alternation vs vehicle [2, 4]: no significant difference | extension reflex vs vehicle [2, 4]: no significant difference | average duration in movement in an open field test vs vehicle [2, 5]: not different from vehicle (p<0.1) | average front paw grip strength vs vehicle [2, 5]: different from vehicle with p<0.1 | average gait length vs vehicle [2, 5]: not different from vehicle (p<0.1) | average gait width vs vehicle [2, 5]: not different from vehicle (p<0.1) | average latency to fall off a metal wire vs vehicle [2, 5]: not different from vehicle (p<0.1) | average latency to fall off a rotating cylinder (rotarod) vs vehicle [2, 5]: the latency to fall was shorter in treated animals (p<0.089) | average regularity of step distance vs vehicle [2, 5]: not different from vehicle (p<0.1) | average uniformity of step alternation (|0.5-(R-L/R-R)|) vs vehicle [2, 5]: not different from vehicle (p<0.1) | extension reflex vs vehicle [2, 5]: not different from vehicle (p<0.1) | average duration in movement in an open field test vs vehicle [2, 6]: no significant difference | average front paw grip strength vs vehicle [2, 6]: no significant difference | average gait length vs vehicle [2, 6]: no significant difference | average gait width vs vehicle [2, 6]: no significant difference | average latency to fall off a metal wire vs vehicle [2, 6]: no significant difference | average latency to fall off a rotating cylinder (rotarod) vs vehicle [2, 6]: no significant difference | average regularity of step distance vs vehicle [2, 6]: no significant difference | average uniformity of step alternation vs vehicle [2, 6]: a significant difference (p<0.05) between vehicle and treatment at 53 days after treatment initiation | extension reflex vs vehicle [2, 6]: no significant difference
